Experimental data reported in PMC2817752, “Phenylbutyric Acid Rescues Endoplasmic Reticulum Stress-Induced Suppression of APP Proteolysis and Prevents Apoptosis in Neuronal Cells” (PLoS ONE, 2010).

Biological target: T1, γ-secretase (presenilin-1, PS1) (Mus musculus, UniProt P49769)
T1 construct: gene Psen1; endogenous γ-secretase complex in N2a (NAG) cells, APPGV16 as substrate; with Nicastrin and the other subunits of the heterotetrameric γ-secretase complex
Experiment: Gal4-luciferase reporter of γ-secretase cleavage of APPGV16 in stable N2a cells, […] h; CTF accumulation by western blot
Assay type: cell-based

- IC50: ~1000 nM
SMILES: C[C@H](NC(=O)Cc1cc(F)cc(F)c1)C(=O)N[C@H](C(=O)OC(C)(C)C)c1ccccc1 [DAPT]
